Laboratory results: the supplement of paper PMC10307832

What was measured:
Experiment in all cases: relative viability (nuclei count vs DMSO), 5 days (fraction); higher = more cells survive
[1] = compound: N#CC1(c2ccc(NC(=O)c3cccnc3NCc3ccncc3)cc2)CCCC1 [Apatinib] + CCNC(=O)c1noc(-c2cc(C(C)C)c(O)cc2O)c1-c1ccc(CN2CCOCC2)cc1 [Luminespib] (partner 0.01 µM)
Method in brief: (§1)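 Lung cancer cell lines in 1536-well plates got either a single drug or a fixed anchor-drug dose together with five library-drug doses (not always all listed) in √10 steps, by pin tool, on the day after seeding. Nuclei were counted after 5 days, and relative viability is the treated-to-vehicle ratio of nuclei counts. Values are medians of duplicate plates.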

[2] = compound: CN(C)C(=N)NC(=N)N [Metformin] + O=C(CCCCCCC(=O)Nc1ccccc1)NO [Vorinostat] (partner 1 µM)
Method in brief: as §1

[3] = compound: N#CC1(c2ccc(NC(=O)c3cccnc3NCc3ccncc3)cc2)CCCC1 [Apatinib] + Cc1cc(Nc2cc(N3CCN(C)CC3)nc(Sc3ccc(NC(=O)C4CC4)cc3)n2)n[nH]1 [Tozasertib] (partner 0.1 µM)
Method in brief: as §1

[4] = compound: N#CC1(c2ccc(NC(=O)c3cccnc3NCc3ccncc3)cc2)CCCC1 [Apatinib] + O=C(c1cc(Cc2n[nH]c(=O)c3ccccc23)ccc1F)N1CCN(C(=O)C2CC2)CC1 [Olaparib] (partner 8 µM)
Method in brief: as §1

| Cell Line | relative viability ([1]; first compound 0.08 µM) | relative viability ([1]; first compound 0.253 µM) | relative viability ([1]; first compound 0.8 µM) | relative viability ([1]; first compound 2.53 µM) | relative viability ([1]; first compound 8 µM) | relative viability ([2]; first compound 31.62 µM) | relative viability ([2]; first compound 100 µM) | relative viability ([2]; first compound 316.23 µM) | relative viability ([2]; first compound 1000 µM) | relative viability ([3]; first compound 0.08 µM) | relative viability ([3]; first compound 0.253 µM) | relative viability ([3]; first compound 0.8 µM) | relative viability ([3]; first compound 2.53 µM) | relative viability ([3]; first compound 8 µM) | relative viability ([4]; first compound 0.08 µM) | relative viability ([4]; first compound 0.253 µM) | relative viability ([4]; first compound 0.8 µM) | relative viability ([4]; first compound 2.53 µM) | relative viability ([4]; first compound 8 µM) | relative viability ([2]; first compound 10 µM) |
| --- | --- | --- | --- | --- | --- | --- | --- | --- | --- | --- | --- | --- | --- | --- | --- | --- | --- | --- | --- | --- |
| EKVX | 0.841 | 0.857 | 0.851 | 0.821 | 0.816 | 0.67 | 0.655 | 0.644 | 0.762 | 0.369 | 0.404 | 0.395 | 0.224 | 0.135 | 0.801 | 0.793 | 0.88 | 0.734 | 0.587 |  |
| NCI-H1944 | 0.701 | 0.773 | 0.667 | 0.644 | 0.494 | 0.651 | 0.571 | 0.59 | 0.631 | 0.23 | 0.229 | 0.239 | 0.238 | 0.223 | 0.407 | 0.378 | 0.37 | 0.346 | 0.319 | 0.465 |
| EPLC-272H | 0.898 |  | 0.92 | 0.329 | 0.201 | 0.352 | 0.383 | 0.4 | 0.579 | 0.28 |  | 0.248 | 0.18 | 0.144 | 0.759 | 0.806 | 0.822 | 0.605 | 0.604 | 0.529 |
| NCI-H1666 | 0.948 | 1.07 | 1.04 | 0.983 | 1.05 | 0.946 | 1.01 | 1.06 | 1.1 | 0.595 | 0.583 | 0.501 | 0.615 | 0.526 | 0.803 | 0.8 | 0.705 | 0.743 | 0.765 | 0.979 |
| NCI-H322M | 0.871 | 0.845 | 0.9 | 1.01 | 1.07 | 0.861 | 0.945 | 0.865 | 0.702 | 0.454 | 0.426 | 0.437 | 0.441 | 0.503 | 0.791 | 0.759 | 0.686 | 0.772 | 0.805 | 0.946 |
| NCI-H1437 | 1.11 | 1.12 | 1.11 | 0.923 | 0.817 | 1.34 | 0.993 | 0.961 | 1.01 | 0.453 | 0.461 | 0.393 | 0.333 | 0.281 | 0.61 | 0.663 | 0.57 | 0.574 | 0.496 | 1.1 |
| NCI-H23 | 0.23 | 0.22 | 0.211 | 0.2 | 0.213 | 0.574 | 0.653 | 0.561 | 0.848 | 0.374 | 0.516 | 0.339 | 0.243 | 0.197 | 0.305 | 0.322 | 0.301 | 0.316 | 0.238 | 0.618 |
| NCI-H2342 | 0.677 | 0.552 | 0.81 | 0.702 | 0.726 | 0.868 | 0.837 | 0.745 | 0.853 | 0.527 | 0.492 | 0.53 | 0.455 | 0.373 | 0.419 | 0.477 | 0.457 | 0.438 | 0.368 |  |
| NCI-H647 | 0.235 | 0.144 | 0.267 | 0.136 | 0.23 | 0.5 | 0.64 | 0.56 | 0.588 | 0.288 | 0.503 | 0.19 | 0.144 | 0.206 | 0.65 | 0.794 | 0.508 | 0.418 | 0.305 | 0.705 |
| NCI-H2009 | 1.1 | 1.09 | 0.988 | 0.992 | 0.86 | 0.706 | 0.857 | 0.83 | 0.75 | 0.856 | 0.792 | 0.687 | 0.58 | 0.38 | 0.722 | 0.651 | 0.64 | 0.431 | 0.443 | 0.715 |
| LCLC-97TM1 | 0.761 | 0.833 | 0.863 | 0.605 | 0.297 | 0.675 | 0.711 | 0.601 | 0.704 | 0.226 | 0.255 | 0.173 | 0.2 | 0.165 | 0.524 | 0.541 | 0.353 | 0.351 | 0.172 |  |
| NCI-H650 | 0.774 | 0.831 | 0.872 | 0.645 | 0.524 | 0.413 | 0.405 | 0.556 | 0.533 | 0.769 | 0.777 | 0.724 | 0.644 | 0.486 | 0.35 | 0.458 | 0.439 | 0.365 | 0.334 | 0.425 |
| HOP-62 | 1.01 | 0.838 | 0.77 | 0.714 | 0.692 | 0.705 | 0.699 | 0.456 | 0.738 | 0.442 | 0.403 | 0.329 | 0.257 | 0.192 | 0.328 | 0.396 | 0.407 | 0.354 | 0.282 | 0.425 |
| LC-2-ad | 1.08 | 1.16 | 1.01 | 1.01 | 0.917 | 0.64 | 0.657 | 0.596 | 0.803 | 0.516 | 0.522 | 0.466 | 0.462 | 0.446 | 0.747 | 0.658 | 0.699 | 0.743 | 0.668 |  |
| NCI-H2126 | 0.963 | 0.774 | 0.985 | 0.826 | 0.832 | 0.704 | 0.752 | 0.694 | 0.872 | 0.953 | 0.861 | 0.797 | 0.709 | 0.607 | 0.973 | 0.861 | 0.88 | 0.845 | 0.904 | 0.739 |
| NCI-H1975 | 0.167 | 0.195 | 0.229 | 0.176 | 0.262 | 0.738 | 0.705 | 0.645 | 0.729 | 0.864 | 0.691 | 0.253 | 0.157 | 0.157 | 0.795 | 0.77 | 0.727 | 0.723 | 0.634 | 0.688 |
| NCI-H1734 | 0.19 | 0.187 | 0.275 | 0.165 | 0.193 | 0.907 | 0.81 | 0.78 | 0.914 | 0.246 | 0.283 | 0.219 | 0.231 | 0.231 | 0.675 | 0.622 | 0.61 | 0.56 | 0.565 | 0.753 |
